# Assay results as given in patent US4552882A, “7-(1-Pyrrolyl) derivatives of 1-ethyl-1,4-dihydro-4-oxoquinoline-3-carboxylic acids and 1-ethyl-1,4-dihydro-4-oxo-1,8-naphthyridine-3-carboxylic acids and their use as antimicrobial agents” (Provesan, SA, priority 1983, dated 1985).
# Experiments:
# Experiment in all cases: MIC in vitro
# Type in all cases: cell-based
# [1] = system: Klebsiella pneumoniae ATCC 10031; settings: ATCC10031, Dextrose agar, 37° C., 20 hours
# Protocol: (§1) (G. L. Daquet and Y. A. Chabbect, Techniques en bacteriologie (Bacteriological techniques), vol. 3, Flammarion Medecine Sciences, Paris, 1972 and W. B. Hugo and A. D. Rusell, Pharmaceutical Microbiology, Blackwell Scientific Publications, London, (1977)). Antibiotic medium no. 1 (seed agar) (Oxoid CM 327) Tryptone-soya broth (Oxoid CM 129) Ringer's physiological solution 1/4 (oxoid BR 52) Dextrose agar (BBL-11165) 0.1 N NaOH "Klebsiella pneumoniae" ATCC 10031 Each of the microorganisms is seeded by streaking in tubes of Antibiotic medium No. 1 (seed agar), which are then incubated at 37° C. for 20 hours. Using a culture loop, the cultures are then seeded in tryptone-soyabroth and incubated at 37° C. for 20 hours. The culture obtained is diluted to 1/4 with Ringer's physiological solution, so as to obtain a standardized suspension of 10^7 -10^9 cfu/ml for each organism. Starting from a solution of 1,000 μg/ml in 0.1 N NaOH, each product is diluted in Dextrose agar (previously melted and maintained at 50° C.), with successive dilutions so as to obtain the following concentrations: 64--32--16--8--4--2--1--0.5--0.25--0.125 μg of derivative/ml medium. For each product, the solution of each concentration is subsequently distributed into Petri dishes 10 cm in diameter, with 10 ml of medium per dish and the same number of dishes as microorganisms to be tested. As soon as the medium has cooled, the dishes are seeded with the inoculations using 0.4 ml of inoculation per dish. They are spread with a Driglasky loop and the supernatant is removed. The seeded dishes are incubated at 37° C. for 20 hours.
# Proteus morganii CHSP 16 = settings: Morganella morganii, CHSP16, Dextrose agar, 37° C., 20 hours
# Protocol: as §1, with “"Proteus morganii" CHSP 16” for “"Klebsiella pneumoniae" ATCC 10031”
# Sarcina lutea ATCC 9341 = settings: Micrococcus luteus, ATCC9341, Dextrose agar, 37° C., 20 hours
# Protocol: as §1, with “"Sarcina Lutea"” for “"Klebsiella pneumoniae"”, “9341” for “10031”
SMILES,MIC [1] [µg/mL],MIC (Proteus morganii CHSP 16) [µg/mL],MIC (Sarcina lutea ATCC 9341) [µg/mL]
"CCn1cc(C(=O)O)c(=O)c2ccc(-n3cccc3)cc21 [Example 1, 7-(1-pyrrolyl)-1-ethyl-1,4-dihydro-4-oxo-3-quinolinecarboxylic acid]",1,8,16
"CCn1cc(C(=O)O)c(=O)c2cc(F)c(-n3cccc3)cc21 [Example 2, 6-fluoro-7-(1-pyrrolyl)-1-ethyl-1,4-dihydro-4-oxo-3-quinolinecarboxylic acid]",0.5,2,16
"CCn1cc(C(=O)O)c(=O)c2ccc(-n3cccc3)nc21 [Example 3, 1-ethyl-1,4-dihydro-4-oxo-7-(1-pyrrolyl)-1,8-naphthyridine-3-carboxylic acid]",4,8,8
"CCn1cc(C(=O)O)c(=O)c2cc(F)c(-n3cccc3)nc21 [Example 4, 1-ethyl-1,4-dihydro-4-oxo-6-fluoro-7-(1-pyrrolyl)-1,8-naphthyridine-3-carboxylic acid]",1,4,4
"CCn1cc(C(=O)O)c(=O)c2cnc(N3CCNCC3)nc21 [Pipemidic acid, reference compound]",2,8,> 64
